The target in assay [1] is T1, TraR (Agrobacterium tumefaciens, UniProt P33905). Briefly: TraR antagonism reporter gene assay. Type of assay: cell-based. For orientation: In a reporter assay the amount or activity of a reporter protein is the signal.
Assay [2] deals with T2, LuxR (Aliivibrio fischeri, UniProt P35327). Briefly: LuxR agonism reporter assay. It counts as cell-based, Vibrio fischeri.
Assay [3] has as its target T2, LuxR. To be noted: cited from earlier work.
Assay [4] concerns the target T3, LasR (Pseudomonas aeruginosa, UniProt P25084). To be noted: shown previously; cited from earlier work.
Assay [5] concerns the target T2, LuxR. To be noted: shown previously; cited from earlier work.
Assay [6] deals with T1, TraR. To be noted: shown previously; cited from earlier work.
The target of assay [7] is T3, LasR. Briefly: LasR agonism reporter gene assay, E. coli DH5α. Type of assay: cell-based.
Assay [8] addresses T2, LuxR. Nature of the assay: LuxR antagonism reporter assay. It counts as cell-based, Vibrio fischeri.
The target in assay [9] is T3, LasR. The note with it: read-out: EC50 E. coli LasR; controls; compound alone; ref 5a; cited from earlier work.

The structures appear in SMILES notation. Where two headings read alike, the source gives them in different places.

T1 sequence (P33905 whole entry): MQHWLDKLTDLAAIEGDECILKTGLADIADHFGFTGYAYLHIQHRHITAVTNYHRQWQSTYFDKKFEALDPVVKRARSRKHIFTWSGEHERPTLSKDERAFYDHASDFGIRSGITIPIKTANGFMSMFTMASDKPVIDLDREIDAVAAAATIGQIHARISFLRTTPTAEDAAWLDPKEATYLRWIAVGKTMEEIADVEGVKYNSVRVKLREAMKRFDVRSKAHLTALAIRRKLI
T3 sequence (P25084 whole entry): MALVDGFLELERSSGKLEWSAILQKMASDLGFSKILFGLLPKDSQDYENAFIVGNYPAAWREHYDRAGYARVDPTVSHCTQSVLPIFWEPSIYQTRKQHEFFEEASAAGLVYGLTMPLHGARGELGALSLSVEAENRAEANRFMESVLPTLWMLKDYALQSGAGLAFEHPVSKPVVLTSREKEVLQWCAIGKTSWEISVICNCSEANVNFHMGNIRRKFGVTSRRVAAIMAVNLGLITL
T2 sequence (P35327 whole entry): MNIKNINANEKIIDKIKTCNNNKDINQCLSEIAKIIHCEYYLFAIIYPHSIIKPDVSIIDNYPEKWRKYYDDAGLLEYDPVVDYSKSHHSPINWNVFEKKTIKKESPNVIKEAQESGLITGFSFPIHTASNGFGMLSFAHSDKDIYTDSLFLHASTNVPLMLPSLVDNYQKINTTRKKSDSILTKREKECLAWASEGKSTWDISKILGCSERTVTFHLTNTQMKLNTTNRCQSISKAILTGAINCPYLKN

As for `O=C(COc1ccc([N+](=O)[O-])cc1)N[C@H]1CCOC1=O` [E24, 4-NO2 POHL], the IC50 in assay [1] was ~0.25 µM. `O=C(Cc1cc(C(F)(F)F)cc(C(F)(F)F)c1)N[C@H]1CCOC1=O` [E9, 3,5-CF3 PHL]: in [2], the response was half-maximal at 0.37 µM (EC50). The same measure, in the same setting: in the case of `N#Cc1cccc(CC(=O)N[C@H]2CCOC2=O)c1` [E5, 3-CN PHL] it was 0.3 µM. On to `O=C(Cc1cccc([N+](=O)[O-])c1)N[C@H]1CCOC1=O` [compound 4, 3-NO2 PHL], for which the “LuxR activation threshold level” value in [3] (previously reported LuxR activator) was ~ 100%. The EC50 in assay [3] (read-out: EC50 V. fischeri LuxR, controls, compound alone, ref 5a) is 0.35 µM. In the case of `O=C(CCc1ccccc1)NC1CCOC1=O` (centres unmarked) [compound 7, non-substituted PPHL], the “LasR inhibition (in words)” value in assay [4] was “minimal activity”. In addition, the “LuxR inhibition (in words)” value in assay [5] was “minimal activity”. In addition, the “TraR inhibition (in words)” value in assay [6] is “minimal activity”. For the molecule `O=C(CCc1ccc(I)cc1)N[C@H]1CCOC1=O` [E32], in assay [7], the EC50 was > 10 µM. Turning to `O=C(CCc1cccc(I)c1)N[C@H]1CCOC1=O` [E33, 3-I PPHL], the IC50 in assay [8] was ~0.47 µM. `O=C(COc1ccc(OC(F)(F)F)cc1)N[C@H]1CCOC1=O` [compound 6, 4-OCF3 POHL]: the “LasR inhibition (in words)” value in [4] is “moderate”. Moreover, the “TraR inhibition (in words)” value in assay [6] is given as “strong”. In addition, the EC50 in [9] is 6.3 µM. Regarding `O=C(CCc1ccc(C(F)(F)F)cc1)N[C@H]1CCOC1=O` [E35, 4-CF3 PHHL], in [7], the EC50 was > 10 µM. For the same molecule, the IC50 in assay [1] is ~0.25 µM. `O=C(CCc1ccc2c(c1)OCO2)N[C@H]1CCOC1=O` [E39]: in assay [7], the EC50 is > 10 µM. For the molecule `O=C(CCc1ccc(Br)cc1)N[C@H]1CCOC1=O` [compound 8, 4-bromo PPHL], in [4], the “LasR inhibition (in words)” value is “potent inhibitor”. In addition, in [5], the “LuxR inhibition (in words)” value is given as “potent inhibitor”. For the same molecule, in [6], the “TraR inhibition (in words)” value is given as “potent inhibitor”.

As to `O=C(CCc1cccc(Br)c1)N[C@H]1CCOC1=O` [E31, 3-Br PPHL], the IC50 in [8] is ~0.47 µM. In [7], `O=C(Cc1ccc(SC(F)(F)F)cc1)N[C@H]1CCOC1=O` [E8, 4-SCF3 PHL] came in with a concentration for a half-maximal effect (EC50) of 3.4 µM. `O=C(CCc1cccc(C(F)(F)F)c1)N[C@H]1CCOC1=O` [E36, 3-CF3 PPHL]: the IC50 in [8] was ~0.47 µM. Take `O=C(Cc1cccc(C(F)(F)F)c1)N[C@H]1CCOC1=O` [E3, 3-CF3 PHL]: the “LuxR activation (in words)” value in assay [2] (Library E) is “failed to activate LuxR”.

In general, IC50 refers to the point on the concentration scale where inhibition reaches its midpoint. One may read the EC50 as the concentration that produces a half-maximal response.
